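Protocol summary: plate cells (96-well), add compound at 5 concentrations, incubate 48 h, interpolate endpoints linearly. GI50: concentration for 50% inhibition of growth.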 The source made the active and inactive calls. No stated cut-off is given here; in the data, active = GI50 up to about 1.1 µM and inactive = higher.
Assays:
Assay in all cases: inhibition of tumour cell growth, NCI panel, 48 h
PC-3 = test system: PC-3
NCI-H460 = test system: NCI-H460
OVCAR-3 = test system: OVCAR-3
TK-10 = test system: TK-10
DU-145 = test system: DU-145
HT-29 = test system: HT-29
UACC-257 = test system: UACC-257
786-0 = test system: 786-0
MCF7 = test system: MCF7
Malme-3M = test system: Malme-3M
SNB-75 = test system: SNB-75
UO-31 = test system: UO-31
A549 = test system: A549
CCRF-CEM = test system: CCRF-CEM
ACHN = test system: ACHN
UACC-62 = test system: UACC-62
MOLT-4 = test system: MOLT-4
K562 = test system: K562
SK-MEL-5 = test system: SK-MEL-5
T47D = test system: T47D

Structure (SMILES)	GI50 (PC-3)	GI50 (NCI-H460)	GI50 (OVCAR-3)	GI50 (TK-10)	GI50 (DU-145)	GI50 (HT-29)	GI50 (UACC-257)	GI50 (786-0)	GI50 (MCF7)	GI50 (Malme-3M)	GI50 (SNB-75)	GI50 (UO-31)	GI50 (A549)	GI50 (CCRF-CEM)	GI50 (ACHN)	GI50 (UACC-62)	GI50 (MOLT-4)	GI50 (K562)	GI50 (SK-MEL-5)	GI50 (T47D)
O=C1/C(=C/c2cccc([N+](=O)[O-])c2)CCCc2ccccc21	11 µM (inactive)	18.5 µM (inactive)	13.6 µM (inactive)	15.7 µM (inactive)	15 µM (inactive)	9.84 µM (inactive)	16.6 µM (inactive)	13.7 µM (inactive)	3.92 µM (inactive)	10.3 µM (inactive)	15.1 µM (inactive)	16.4 µM (inactive)	19.9 µM (inactive)	2.93 µM (inactive)	13.7 µM (inactive)	10.1 µM (inactive)	4.95 µM (inactive)	3.27 µM (inactive)		
CN1OC(=O)N(C)C1c1ccccc1 (stereo not given)		> 100 µM (inactive)	> 100 µM (inactive)			> 100 µM (inactive)	> 100 µM (inactive)		> 100 µM (inactive)	> 100 µM (inactive)	> 100 µM (inactive)	> 100 µM (inactive)	> 100 µM (inactive)	> 100 µM (inactive)		> 100 µM (inactive)	> 100 µM (inactive)	> 100 µM (inactive)	> 100 µM (inactive)	
C[N+]1(CCCC[N+]2(C)CCCCCCC2)CCCCCCC1	> 100 µM (inactive)	> 100 µM (inactive)	> 100 µM (inactive)	> 100 µM (inactive)	> 100 µM (inactive)	> 100 µM (inactive)	> 100 µM (inactive)	> 100 µM (inactive)		> 100 µM (inactive)		> 100 µM (inactive)	> 100 µM (inactive)	> 100 µM (inactive)	> 100 µM (inactive)	> 100 µM (inactive)	> 100 µM (inactive)	> 100 µM (inactive)	> 100 µM (inactive)	> 100 µM (inactive)
CCOC(=O)NNC(=O)NCCCCNC(=O)NNC(=O)OCC	> 100 µM (inactive)	> 100 µM (inactive)	> 100 µM (inactive)	> 100 µM (inactive)	> 100 µM (inactive)	> 100 µM (inactive)	> 100 µM (inactive)	> 100 µM (inactive)			0.458 µM (active)	> 100 µM (inactive)	> 100 µM (inactive)	> 100 µM (inactive)	> 100 µM (inactive)	> 100 µM (inactive)	> 100 µM (inactive)	> 100 µM (inactive)	> 100 µM (inactive)	> 100 µM (inactive)
COc1cc(/C=C2/SC(c3ccccc3)N(c3cccc(Cl)c3)C2=O)cc(OC)c1OC (stereo not given)		32.1 µM (inactive)	40.1 µM (inactive)	33.7 µM (inactive)	39.1 µM (inactive)	25.6 µM (inactive)	40.1 µM (inactive)	16.8 µM (inactive)	24 µM (inactive)	24.6 µM (inactive)		24.8 µM (inactive)	54.5 µM (inactive)	11.3 µM (inactive)	19.3 µM (inactive)	18.4 µM (inactive)	24.7 µM (inactive)	13.5 µM (inactive)	29.5 µM (inactive)	25.5 µM (inactive)
CS(=O)(=O)c1nc(-c2cc3c(c(S(C)(=O)=O)n2)CCC3)cc2c1CCCCC2	> 100 µM (inactive)		> 100 µM (inactive)	42.7 µM (inactive)	> 100 µM (inactive)	> 100 µM (inactive)	> 100 µM (inactive)	70.8 µM (inactive)		34.5 µM (inactive)	6.37 µM (inactive)	0.834 µM (active)	> 100 µM (inactive)	> 100 µM (inactive)	45 µM (inactive)	22.9 µM (inactive)	> 100 µM (inactive)	> 100 µM (inactive)	> 100 µM (inactive)	
CCOC(=O)NC(C(F)(F)F)(C(F)(F)F)P(=O)(OC(C)C)OC(C)C	> 100 µM (inactive)	> 100 µM (inactive)	> 100 µM (inactive)	> 100 µM (inactive)	> 100 µM (inactive)	> 100 µM (inactive)	> 100 µM (inactive)	> 100 µM (inactive)	> 100 µM (inactive)	> 100 µM (inactive)	> 100 µM (inactive)	> 100 µM (inactive)	> 100 µM (inactive)	> 100 µM (inactive)	> 100 µM (inactive)	> 100 µM (inactive)	> 100 µM (inactive)	> 100 µM (inactive)	> 100 µM (inactive)	
Oc1cccc(-c2ccc3c4c2O[C@H]2c5[nH]c6ccccc6c5C[C@@]5(O)[C@@H](C3)N(CC3CC3)CC[C@]425)c1	1.98 µM (inactive)		2 µM (inactive)	2.24 µM (inactive)	1.87 µM (inactive)	1.7 µM (inactive)		1.62 µM (inactive)		1.86 µM (inactive)		1.67 µM (inactive)	1.78 µM (inactive)	1.9 µM (inactive)	2.23 µM (inactive)				3.48 µM (inactive)	2.07 µM (inactive)

Source: ChEMBL document CHEMBL1201862, “PubChem BioAssay data set” (2004)
